This is an account of results in PMC10220892 (Pharmaceutics, 2023).

Series [1] deals with U87MG-EGFRvIII cells. The experiment in a line: MTT cell viability assay. In kind it is cell-based. To be noted: 72 h. Here is the method:
(§1) U87MG, U251, U87MG-EGFRvIII, and U87MG-TMZR cells were cultured in DMEM supplemented with 10% FBS and plated at low density in 96-well plates (2000 cells per well). Then, the cells were treated with different concentrations of gefitinib or compound SMUZ106 for a period of 72 h. MTT (5 mg/mL) was added to each well, and the cells were incubated for another 4 h at 37 °C. The optical density value at 570 nm was measured using a microplate reader (TECAN, Männedorf, Switzerland).
(Tetrazolium dyes change colour on reduction, which living cells bring about.)

The subject of series [2] is U87MG cells. The experiment in a line: MTT cell viability assay. In kind it is cell-based. Conditions: Homo sapiens, U-87 MG, 72 h. Here is the method:
as §1

In series [3] the test system is U251 cells. The experiment in a line: MTT cell viability assay. The series is classed as cell-based. To be noted: Homo sapiens, U-251, 72 h. Here is the method:
as §1

For series [4], the system named is U87MG-TMZR cells (TMZ-resistant U87MG cells). The experiment in a line: MTT cell viability assay. The series is classed as cell-based. To be noted: Homo sapiens, U-87 MG, 72 h. Here is the method: as §1
Series [5] is described as follows: Solubility by HPLC. The series is classed as physicochemical. Here is the method:
The solubility of the compound SMUZ106 and its related salts in artificial gastric juice, artificial intestinal fluid, and physiological saline were determined by HPLC. […] Therefore, SMUZ106 hydrochloride was selected for the pharmacokinetic analysis.

In series [6] the test system is phospho-EGFR. The experiment in a line: Western blotting of EGFR signaling in U87MG cells. To be noted: 2.5, 5 and 10 μM, 48 h. In kind it is cell-based. The protocol:
(§2) The GBM cells were exposed to compound SMUZ106 at different concentrations (2.5, 5, and 10 μM) for 48 h, and the total proteins were extracted from the cells using RIPA lysis buffer. The concentration of the obtained protein was determined using the BCA Protein Assay Kit (Thermo Fisher, Waltham, MA, USA). Equivalent protein samples (30 μg) were subjected to SDS-PAGE gels and transferred to NC membranes (PALL, Port Washington, NY, USA). Then, the membranes were blocked with 5% milk in TBST for 1 h at RT and probed with primary antibodies diluted overnight at 4 °C, followed by incubation with appropriate secondary antibodies for 1 h at RT. Finally, the protein bands were visualized and scanned using an imaging system (ProteinSimple, Santa Clara, CA, USA).

Series [7] deals with U87MG-EGFRvIII cells. The experiment in a line: Apoptosis analysis by flow cytometry (Annexin V-FITC/PI). The series is classed as cell-based. To be noted: 48 h. Here is the method: (§3) U87MG-EGFRvIII cells were seeded into 6-well plates and treated with different concentrations of the compound SMUZ106 (2.5, 5, and 10 μM) for 48 h. Following the treatment, the cells were harvested, washed twice with cold PBS, and fixed overnight at 4 °C in 70% ethanol, then stained with PI solution to analyze the cell cycle distribution via flow cytometry. The results were determined using the ModFit LT 5.0 software. Each assay was performed in triplicates.
To perform the apoptosis analysis, after being washed with PBS, the cells were resuspended in 195 μL Annexin V-FITC binding solution, and then 5 µL of Annexin V-FITC was added, followed by 10 µL PI. Following incubation at room temperature for 20 min in the dark, cell apoptosis rates were detected by flow cytometry. The data were analyzed using FlowJo_V10 software.

Series [8] has as its target T1, EGFR (Homo sapiens, UniProt P00533). The arrangement: method as in PMID 27132165. To be noted: read-out: IC50 EGFR kinase; cited from earlier work.
For series [9], the system named is phospho-EGFR. The experiment in a line: Western blotting of EGFR signaling in U87MG-EGFRvIII cells. The series is classed as cell-based. To be noted: 2.5, 5 and 10 μM, 48 h. The protocol:
as §2
A general note: A western blot detects proteins with antibodies after separation by electrophoresis.

Series [10] relates to U87MG-TMZR cells. The experiment in a line: Colony formation assay. In kind it is cell-based. To be noted: 3, 10 and 30 μM. Here is the method: (§4) U87MG, U251, U87MG-EGFRvIII, and U87MG-TMZR cells were trypsinized, and suspended in 6-well plates. After a period of 24 h, the cells were exposed to compound SMUZ106 with different concentrations (1, 3, and 10 μM), and the U87MG-TMZR cells were exposed to compound SMUZ106 with different concentrations (3, 10, and 30 μM) for 72 h. After 10–14 days of cultivation, the cells were stained with 0.4% trypan blue to visualize the formed colony and to count the number of colonies by Enzyme-Linked Immunospot Analyzer (CTL, Shaker Heights, OH, USA).

Series [11] deals with U87MG-EGFRvIII cells. The experiment in a line: Colony formation assay. In kind it is cell-based. To be noted: 1, 3 and 10 μM. Here is the method:
as §4

The test system of series [12] is U87MG cells. The experiment in a line: Colony formation assay. In kind it is cell-based. To be noted: 1, 3 and 10 μM. Here is the method:
as §4

Series [13] concerns U251 cells. The experiment in a line: Colony formation assay. The series is classed as cell-based. To be noted: 1, 3 and 10 μM. The protocol:
as §4

Series [14] deals with T2, HER4 (Homo sapiens, UniProt Q15303). The arrangement: method as in PMID 27132165. To be noted: Figure S1; read-out: IC50 HER4 kinase; cited from earlier work.
T2 sequence (Q15303 26-1308): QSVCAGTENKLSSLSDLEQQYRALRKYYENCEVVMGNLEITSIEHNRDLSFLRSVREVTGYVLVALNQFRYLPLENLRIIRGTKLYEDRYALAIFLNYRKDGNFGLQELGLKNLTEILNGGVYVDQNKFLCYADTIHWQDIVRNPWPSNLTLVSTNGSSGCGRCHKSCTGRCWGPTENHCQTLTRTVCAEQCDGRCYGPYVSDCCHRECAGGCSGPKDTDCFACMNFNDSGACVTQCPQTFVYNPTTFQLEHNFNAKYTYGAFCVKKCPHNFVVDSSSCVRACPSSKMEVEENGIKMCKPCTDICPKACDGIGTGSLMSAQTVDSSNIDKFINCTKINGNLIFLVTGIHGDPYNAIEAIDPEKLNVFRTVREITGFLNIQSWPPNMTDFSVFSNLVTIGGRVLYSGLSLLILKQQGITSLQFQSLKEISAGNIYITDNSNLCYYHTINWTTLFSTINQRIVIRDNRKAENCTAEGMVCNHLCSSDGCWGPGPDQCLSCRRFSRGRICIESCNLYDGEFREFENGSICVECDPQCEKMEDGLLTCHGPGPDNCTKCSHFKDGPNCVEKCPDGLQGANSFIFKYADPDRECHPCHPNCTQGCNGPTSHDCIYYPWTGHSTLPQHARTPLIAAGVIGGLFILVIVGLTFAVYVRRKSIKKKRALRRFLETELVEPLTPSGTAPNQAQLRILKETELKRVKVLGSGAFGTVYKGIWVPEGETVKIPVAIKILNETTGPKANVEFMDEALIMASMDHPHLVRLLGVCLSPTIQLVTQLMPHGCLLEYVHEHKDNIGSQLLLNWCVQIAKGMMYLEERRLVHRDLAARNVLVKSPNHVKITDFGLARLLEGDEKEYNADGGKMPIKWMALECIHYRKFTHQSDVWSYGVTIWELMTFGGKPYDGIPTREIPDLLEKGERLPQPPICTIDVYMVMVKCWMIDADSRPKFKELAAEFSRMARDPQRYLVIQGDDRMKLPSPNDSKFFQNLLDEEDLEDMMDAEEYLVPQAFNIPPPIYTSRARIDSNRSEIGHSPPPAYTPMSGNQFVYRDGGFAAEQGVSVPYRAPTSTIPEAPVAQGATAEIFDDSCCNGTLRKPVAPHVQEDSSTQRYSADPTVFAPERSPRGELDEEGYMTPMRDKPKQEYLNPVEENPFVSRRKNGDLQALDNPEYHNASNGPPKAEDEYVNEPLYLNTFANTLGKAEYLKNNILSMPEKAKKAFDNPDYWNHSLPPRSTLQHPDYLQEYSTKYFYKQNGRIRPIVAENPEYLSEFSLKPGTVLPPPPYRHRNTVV
Series [15] relates to panel of 76 tyrosine kinases. The experiment in a line: Kinase selectivity screen (HTRF KinEASE-TK). The series is classed as biochemical. Conditions: 1 μM, 76 kinases. The protocol: (§5) IC50 determinations for EGFR were performed with the Z’-LYTE technology platform (Life Technologies), according to the manufacturer’s instructions. The enzyme activity assays of compound SMUZ106 were performed at a single-point concentration (1 μM) against 76 kinases by using the HTRF KinEASE-TK assay according to the manufacturer’s instructions.
A general note: TR-FRET usually uses a lanthanide donor and a delayed reading to cut background.

Series [16] addresses T3, HER2 (Homo sapiens, UniProt P04626). The arrangement: method as in PMID 27132165. Conditions: Figure S1; read-out: IC50 HER2 kinase; cited from earlier work.
In series [17] the test system is U87MG-EGFRvIII cells. The experiment in a line: Cell cycle analysis by flow cytometry (PI). In kind it is cell-based. To be noted: 48 h; for cells in S phase: control 35.68%; for cells in G0/G1 phase: control 50.82%. Here is the method: as §3
Series [18] concerns the target T1, EGFR. The experiment in a line: HTRF KinEASE-TK single-point kinase assay. To be noted: read-out: inhibition rate EGFR. The series is classed as biochemical. The protocol:
as §5

Series [19] deals with T2, HER4. The experiment in a line: HTRF KinEASE-TK single-point kinase assay. To be noted: read-out: inhibition rate HER4. The series is classed as biochemical. Here is the method: as §5
Series [20] has as its target T3, HER2. The experiment in a line: HTRF KinEASE-TK single-point kinase assay. In kind it is biochemical. Conditions: read-out: inhibition rate HER2. The protocol:
as §5

Series [21] in a line: Pharmacokinetics study in mice. In kind it is in vivo. Conditions: male, Kunming, mouse, plasma. Here is the method:
A total of 72 male Kunming mice with an average weight of 20 g were purchased from Southern Medical University (Guangzhou, China) and divided into three groups, with […]. SMUZ106 was dissolved in 0.5% CMC-Na to prepare a suspension for oral administration (100 mg/kg). […] For the intravenous and oral administration, blood samples (0.5 mL) were collected from the mice’s orbital veins and placed into heparinized tubes at 0.25, 0.5, 1, 2, 6, 8, 12, and 24 h following administration. After centrifuging all the samples at 8000 r/min for 5 min, the supernatants were stored at −80 °C until analysis. Subsequently, the plasma samples were transferred to a clean 1.5 mL centrifuge tube and spiked with 100 μL of the internal standard solution (gefitinib, 1.0 μg/mL). Methyl alcohol was then added to the mixture, vortexed for 2 min, and centrifuged at 13,000 r/min for 30 min. […] A 10 µL aliquot of each sample was injected into the LC-MS/MS system for analysis. The pharmacokinetic parameters, such as half-life (t1/2), time of peak plasma concentration (Tmax), maximum plasma concentration (Cmax), mean residence time (MRT), area under the concentration–time curve (AUC), and bioavailability (F), were determined using DAS 2.0 software.

≈ marks a conversion by molar mass, not a printed value.

T1 sequence (P00533 25-1210): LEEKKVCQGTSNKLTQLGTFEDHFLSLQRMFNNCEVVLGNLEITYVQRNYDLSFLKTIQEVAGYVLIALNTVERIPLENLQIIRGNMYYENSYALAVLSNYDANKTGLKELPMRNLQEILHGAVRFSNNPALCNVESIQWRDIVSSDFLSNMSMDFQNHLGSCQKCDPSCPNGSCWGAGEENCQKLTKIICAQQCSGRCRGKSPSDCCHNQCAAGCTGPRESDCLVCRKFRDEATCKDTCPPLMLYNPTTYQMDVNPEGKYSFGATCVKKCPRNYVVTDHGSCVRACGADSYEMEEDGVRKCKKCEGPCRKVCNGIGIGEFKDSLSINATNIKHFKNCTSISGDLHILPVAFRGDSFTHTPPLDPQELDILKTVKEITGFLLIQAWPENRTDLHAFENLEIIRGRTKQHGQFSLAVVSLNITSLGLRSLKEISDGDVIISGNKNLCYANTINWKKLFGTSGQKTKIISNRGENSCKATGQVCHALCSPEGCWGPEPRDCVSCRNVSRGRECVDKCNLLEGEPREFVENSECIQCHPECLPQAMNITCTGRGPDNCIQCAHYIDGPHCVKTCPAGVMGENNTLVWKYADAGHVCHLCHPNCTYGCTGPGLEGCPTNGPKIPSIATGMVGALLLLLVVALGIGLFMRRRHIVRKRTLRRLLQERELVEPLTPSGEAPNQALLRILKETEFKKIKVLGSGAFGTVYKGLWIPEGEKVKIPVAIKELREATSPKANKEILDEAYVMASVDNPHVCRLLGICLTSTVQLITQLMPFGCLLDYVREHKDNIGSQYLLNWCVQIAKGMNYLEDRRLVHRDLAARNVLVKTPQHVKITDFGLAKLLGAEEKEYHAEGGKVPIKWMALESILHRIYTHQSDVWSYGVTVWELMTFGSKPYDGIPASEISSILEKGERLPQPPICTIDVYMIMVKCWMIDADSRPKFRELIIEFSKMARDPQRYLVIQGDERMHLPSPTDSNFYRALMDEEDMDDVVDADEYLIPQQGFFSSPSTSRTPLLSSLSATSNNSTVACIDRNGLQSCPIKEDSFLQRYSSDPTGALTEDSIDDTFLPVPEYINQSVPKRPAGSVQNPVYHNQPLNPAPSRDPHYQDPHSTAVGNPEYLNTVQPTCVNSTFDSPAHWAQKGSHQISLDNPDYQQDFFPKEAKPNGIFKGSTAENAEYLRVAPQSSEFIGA
T3 sequence (P04626 23-1255): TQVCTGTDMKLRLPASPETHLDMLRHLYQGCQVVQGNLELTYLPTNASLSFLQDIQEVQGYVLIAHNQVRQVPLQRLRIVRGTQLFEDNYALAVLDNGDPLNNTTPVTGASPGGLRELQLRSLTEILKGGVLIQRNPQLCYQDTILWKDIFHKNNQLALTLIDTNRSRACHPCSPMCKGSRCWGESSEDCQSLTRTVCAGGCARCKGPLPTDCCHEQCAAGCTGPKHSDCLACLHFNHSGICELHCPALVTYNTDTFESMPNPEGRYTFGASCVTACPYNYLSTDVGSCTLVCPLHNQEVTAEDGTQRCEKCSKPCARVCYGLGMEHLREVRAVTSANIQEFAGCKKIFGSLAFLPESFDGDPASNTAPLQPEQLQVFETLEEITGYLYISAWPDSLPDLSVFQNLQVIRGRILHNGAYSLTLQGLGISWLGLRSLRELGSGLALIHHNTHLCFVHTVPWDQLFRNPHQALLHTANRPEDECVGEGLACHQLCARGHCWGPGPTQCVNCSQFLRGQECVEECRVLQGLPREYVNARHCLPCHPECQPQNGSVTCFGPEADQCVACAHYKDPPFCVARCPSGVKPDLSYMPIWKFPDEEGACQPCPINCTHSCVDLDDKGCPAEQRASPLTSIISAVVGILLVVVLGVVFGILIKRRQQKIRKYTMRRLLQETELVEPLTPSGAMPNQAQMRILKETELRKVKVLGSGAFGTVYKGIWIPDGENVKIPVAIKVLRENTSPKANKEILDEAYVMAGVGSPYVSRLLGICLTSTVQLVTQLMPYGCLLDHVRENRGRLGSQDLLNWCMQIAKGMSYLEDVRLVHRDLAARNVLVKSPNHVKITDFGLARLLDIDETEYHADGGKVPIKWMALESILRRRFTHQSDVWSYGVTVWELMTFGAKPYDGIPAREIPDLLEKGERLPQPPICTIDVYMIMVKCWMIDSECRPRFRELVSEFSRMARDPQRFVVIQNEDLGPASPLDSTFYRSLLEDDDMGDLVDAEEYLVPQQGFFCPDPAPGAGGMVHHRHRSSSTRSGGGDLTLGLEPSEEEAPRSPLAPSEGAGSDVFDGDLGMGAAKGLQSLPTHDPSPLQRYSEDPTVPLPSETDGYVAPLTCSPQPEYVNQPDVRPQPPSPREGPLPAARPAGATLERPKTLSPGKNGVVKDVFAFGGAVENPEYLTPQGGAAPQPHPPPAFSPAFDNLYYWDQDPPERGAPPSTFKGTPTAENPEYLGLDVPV

Take `c1cnc2ccc(Nc3ncnc4ccc(-c5cnn(C6CCNCC6)c5)cc34)cc2c1` [SMUZ106, 6-(1-(piperidin-4-yl)-1H-pyrazol-4-yl)-N-(quinolin-6-yl)quinazolin-4-amine]: the IC50 (usually the concentration needed to halve the response being measured) in series [1] was 4.36 µM; in [2], 7.43 µM; in series [3] it was 10.3 µM; in series [4], 7.86 µM; in series [8] it was 0.0441 µM; in series [14], 0.93 µM. For the same compound, in series [16], the IC50 was 0.874 µM. Further, the solubility – broadly, the dissolved amount per volume that the medium holds – in [5] (artificial gastric juice, simulated gastric fluid) is 16.8 mg/mL (≈ 39.8 mM); in series [5] (artificial intestinal juice, fassgf or other biorelevant), 0.22 mg/mL (≈ 0.522 mM); in [5] (medium not named in the sentence (values match artificial gastric juice of Table S2)), 16.8 mg/mL (≈ 39.8 mM); in series [5] (normal saline, saline or isotonic), 3.69 mg/mL (≈ 8.75 mM). In addition, the “phosphorylation levels of AKT and Erk1/2” value in [6] and in series [9] was “did not significantly downregulate” in each case. In addition, the “protein expression level of total EGFR” value in series [6] and in [9] was “remained unchanged” each time. In addition, the “protein level of phospho-EGFR” value in series [6] and in series [9] was “decreased dose dependently” in each case. The figures for the “percentage of apoptotic cells” value in series [7] (2.5 μM), in series [7] (5 μM) and in series [7] (10 μM) were 2.34%, 2.70% and 3.02%, respectively. Further, the clone formation result in [10] is on record as “could inhibit the proliferation of TMZ-resistant U87MG cells”. The “clonogenicity (number of colonies)” value in [11], in [12] and in series [13] was “significantly decreased the clonogenicity” throughout. In [15], the kinase selectivity result is reported as “excellent selectivity to EGFR”. The “cells in S phase” value in series [17] (2.5 μM) worked out at 27.08%; in [17] (5 μM), 24.01%; in [17] (10 μM), 20.78%. The “cells in G0/G1 phase” value in [17] (2.5 μM) is listed as 54.44%; in series [17] (5 μM) it was 58.17%; in [17] (10 μM), 62.50%. Further, the figures for the inhibition at 1 µM in [18], in series [19] and in series [20] were 98.7%, 87.3% and 75.4%, respectively. In series [21] (oral, p.o. 100 mg/kg vs i.v. 25 mg/kg, read-out: F (absolute bioavailability)), the bioavailability (in general, dose-corrected exposure relative to a reference, in per cent) stood at 29%. Moreover, the total exposure AUC(0-inf) (commonly the area under the concentration-time curve extrapolated to infinity) in series [21] (po, p.o. 100 mg/kg) is 7510 ± 1060 ng·h/mL. The maximum concentration (Cmax) (commonly the peak of the concentration-time curve) in series [21] (po, p.o. 100 mg/kg) was found to be 1190 ± 464 ng/mL. For the same compound, in series [21] (po, p.o. 100 mg/kg), the Tmax (as a rule, the time at which the peak concentration occurs) stood at 6 h. For the same compound, in [21] (po, p.o. 100 mg/kg), the half-life (in general, how long it takes for the measured level to halve) was 0.87 ± 0.01 h. Also, in series [21] (po, p.o. 100 mg/kg, read-out: MRT0→t), the MRT last is 6.32 ± 0.22 h.
`Cn1nnc2c(C(N)=O)ncn2c1=O` [TMZ, temozolomide, reference compound]: the IC50 in [2] worked out at 501 µM; in series [4], 2040 µM.
